Measurements: publication PMC4279406, “Simultaneous targeting of PI3Kδ and a PI3Kδ-dependent MEK1/2-Erk1/2 pathway for therapy in pediatric B-cell acute lymphoblastic leukemia” (Oncotarget, 2014)

Key:
[1] = test system: PI3Kα (IGF-1-stimulated MEF cells); assay: IGF-1-induced Akt phosphorylation in MEF cells; format: cell-based, murine; details: up to 0.5 μM; IGF-1 100 ng/ml; 1 h pre-incubation
Method: In fibroblasts, signals from the insulin-like growth factor 1 (IGF-1) receptor are mediated by PI3Kα, while lysophosphatidic acid (LPA) stimulates G-protein coupled receptor (GPCR) signals via PI3Kβ[26]. After being pre-incubated with X-370, murine embryonic fibroblasts cultured in serum-free medium were stimulated with IGF-1 or LPA. […] Either PI3Kδ or PI3Kγ can be activated in THP-1 monocytes dependent on the stimulating ligand, among which macrophage colony stimulating factor (M-CSF/CSF-1) activates RTK-coupled PI3Kδ, while monocyte chemoattractant protein-1 (MCP-1) activates PI3Kγ [24]. Accordingly, THP-1 cells cultured in serum-free medium were stimulated with MCP-1 or M-CSF in the presence of X-370 and phosphorylated Akt was measured.
Cell lysates were probed with indicated antibodies. The IC50 values were calculated based on relative band intensity measured with ImageQuant™ TL (GE Healthcare Life Sciences, Piscataway, NJ) (B). Data shown are mean values from three independent experiments. (C, D, E, F) X-370 blocked stimuli-triggered PI3Kδ activation. MEF cells and THP-1 were starved in serum-free medium for 12 h or 4 h respectively and X-370 were added for an additional 1 h treatment following stimulation of IGF-1 at 100 ng/ml for MEF cells (C), LPA at 10 μM for MEF cells (D), MCP-1 at 100ng/ml for THP-1 (E) and M-CSF at 50 ng/ml for THP-1 (F). […]

[2] = test system: Raji cells; assay: Caspase 3/7 activity assay; format: cell-based, human
Method: Simultaneous targeting of PI3Kδ and a PI3Kδ-dependent MEK1/2-Erk1/2 pathway for therapy in pediatric B-cell acute lymphoblastic […]
Cells were treated as indicated conditions and then subjected to lysate to perform standard Western blot as described previously1. Briefly, whole-cell lysates and SDS-loading buffer diluted cell fractions were analyzed on SDS-PAGE gels. Transfer to nitrocellulose membranes, nonfat milk blocking, probing with indicated primary antibodies and the corresponding HRP-conjugated second antibodies.
Chemiluminescence were performed and captured using ImageQuant LAS 4000 (GE healthcare Life Sciences, Piscataway, NJ, USA) and band intensity was measure both with ImageQuant™ TL (GE Healthcare Life Sciences) 2.
Caspase 3/7 activity assay
Raji cells were treated with or without X-370 at 1 μM, 5μM and 10 μM for 24, 48 and 72 hours, thenwere measured using the Caspase-Glo® 3/7 Assay (Promega, US) following the protocol and relative caspase-3/7 activity was normalized to cell number which DMSO control was the base line.
5-bromo-2'-deoxyuridine (BrdU) incorporation Assay
5-bromo-2'-deoxyuridine (BrdU) incorporation was performed using FITC BrdU Flow Kit (BD Pharmingen, San Diego, CA) according to the provided protocol.
Figure S1;. CAL-101 docked to the crystal structure of PI3Kδ. […]

[3] = test system: Raji-R cells; assay: Proliferation of rituximab-resistant Raji-R cells (CCK-8); format: cell-based, human
Method: Raji and SU-DHL-6 cells were treated with X-370 for 1 h (left panel) or treated with 0.5 μM X-370 for indicated times (middle panel). Right panel, Raji cells were incubated in fresh medium following treatment with 0.5 μM X-370 for 1 h. Indicated proteins were detected. (B) Raji-R (the rituximab-resistant derivatives of Raji cells) cells were resistant to X-370. The activity of X-370 on the proliferation of Raji parent and Raji-R cells was determined by CCK-8 assay as described in the methods section. (C) X-370 blocked phosphorylation of Akt but not Erk1/2 in Raji-R cells. Raji-R cells were treated with X-370 for 1h and indicated proteins were detected. Data shown are representative from three independent experiments.
Cell viability was assessed using Cell Counting Kit (CCK-8, Dojindo, Japan) following the manufacturer's protocol and OD values were measured with a Spectramax M5 plate reader (Molecular Devices, Sunnyvale, CA)[45].

O=C(N1CCCC1)N1CCC(n2cnc3c(-n4c(C(F)F)nc5ccccc54)nc(N4CCOCC4)nc32)CC1 [X-370]
IGF-1-induced Akt phosphorylation [1]: partially inhibited
concentration at which caspase 3/7 activity increased [2]: ≥ 5 µM
sensitivity of proliferation compared to parental Raji cells [3]: resistant
